Measurements from patent EP0088602A2, “Microbiological oxidation process” (EXXON RESEARCH AND ENGINEERING COMPANY, priority 1982, dated 1983).
Values joined by “and” are separate entries in the source; they are usually repeats but may differ in a detail not shown here. Equal values may be shown once. Read-outs that look alike come from different tables or passages of the source.

Tests used:
[1] = system: Methane Monooxygenase from Methylobacterium sp. CRL.26; experiment: Hydroxylation of alkanes / epoxidation of alkenes with NADH2 regenerated by formaldehyde dehydrogenase (Example 12, Table XV); assay type: biochemical
Method: (§1) The vials were incubated at 35 °C on a reciprocating water bath shaker at 50 oscillations per minute. The gaseous phase of the vials was evacuated by vacuum and replaced with a 1 to 1 by volume gaseous mixture of the alkane substrate indicated in Table III to oxygen, at which point the reaction was initiated.
(§2) The rate of oxidation of the alkanes was measured by injecting 1-2 µ 1 samples of the reaction mixture into a gas chromatograph immediately after addition of substrate (zero time) and after 5 and 10 min. of incubation. Specific activities were expressed as nmoles of product formed per min. per mg. of protein, with the higher number representing better conversion. With each substrate, control experiments were conducted in the absence of NADH2, in the absence of oxygen, and using boiled extracts.
(§3) The alcohol products were identified and estimated by retention time comparisons and co-chromatography with authentic standards using flame-ionization gas chromatography. The column temperature was maintained isothermally between 80 °C and 200°C with helium carrier gas flow rates of 20-40 ml per min. The amount of product formed was estimated from peak areas using a standard graph constructed using authentic compounds.
Duplicate measurements were carried out for each substrate. Protein concentrations in cellular fractions were estimated with Folin Ciocalteu reagent as described by O.H. Lowry et al., J. Biol. Chem., 193, 265 (1951), using bovine serum albumin as a standard.

[2] = system: Soluble Methane Monooxygenase from Methylobacterium organophilum (ATCC 27,886); experiment: Hydroxylation of alkanes / epoxidation of alkenes with NADH2 regenerated by formaldehyde dehydrogenase (Example 21); assay type: biochemical
Method: as §1, with “35°C” for “35 °C”, “minute..” for “minute.”, “gaseous mixture consisting of 1:1” for “1 to 1”, “oxygen:the” for “gaseous mixture of the”, “XVIII,” for “III to oxygen,”
(§4) The rate of oxidation of the alkane substrates was measured either by estimation of products formed or by amount of substrate utilized from the gas or liquid phase. In the former case, 1-2 µ 1 samples of the reaction mixture were injected into a gas chromatograph immediately after addition of substrate (zero time) and after 4 and 8 min. of incubation. Specific activities were expressed as nmoles of product formed per min. per mg of protein, with the higher number representing better conversion. If substrate utilization was the measure of oxidation rate, […] of liquid or 50 Al of gas was injected into the gas chromatograph at zero time and after 4 and 8 min. of incubation of the reaction mixture at 35°C, and specific activities were expressed as the amount of substrate utilized per min. per mg. of protein. Regardless of the procedure employed, control experiments were conducted for each substrate in the absence of NADH2, in the absence of oxygen, and using boiled extracts.
as §3, with “80°C” for “80 °C”, “130°C” for “200°C”
(§5) Duplicate measurements were carried out for each substrate. Protein concentrations in cellular fractions were estimated with Folin Ciocalteu reagent as described by O.H. Lowry et al., supra, using bovine serum albumin as a standard.

[3] = system: Soluble Methane Monooxygenase from Methylobacterium organophilum (ATCC 27,886); experiment: Oxidation of alkanes/alkenes with NADH2 regenerated by secondary alcohol dehydrogenase (Example 22); assay type: biochemical
Method: as §1, with “35°C” for “35 °C”, “minute..” for “minute.”, “gaseous mixture consisting of 1:1” for “1 to 1”, “oxygen:the” for “gaseous mixture of the”, “XVIII,” for “III to oxygen,”
as §4
as §3, with “80°C” for “80 °C”, “130°C” for “200°C”
as §5

[4] = system: Soluble Methane Monooxygenase from Methylobacterium organophilum (ATCC 27,886); experiment: Oxidation of alkanes/alkenes with NADH2 regenerated by formate and NAD+ (Example 20); assay type: biochemical
Method: as §1, with “35°C” for “35 °C”, “minute..” for “minute.”, “gaseous mixture consisting of 1:1” for “1 to 1”, “oxygen:the” for “gaseous mixture of the”, “XVIII,” for “III to oxygen,”
as §4
as §3, with “80°C” for “80 °C”, “130°C” for “200°C”
as §5

[5] = system: Soluble Methane Monooxygenase; experiment: Effect of various cofactor systems on propylene oxidation by the soluble S(80) fraction (Examples 7, 11); assay type: biochemical, Methylobacterium organophilum (CRL.26); details: propylene substrate; for Specific Activity: cofactor system at 2.5 mM; for suitability as cofactor system / electron donor (in words): replacing NADH2
Method: (§6) The vials were incubated at 35 °C on a reciprocating water bath shaker at 50 oscillations per minute. […]
as §2, §3
(§7) Duplicate measurements were carried out for each substrate.

[6] = system: soluble methane monooxygenase; experiment: Other electron donors in place of NADH2 (Example 23); assay type: biochemical, Methylobacterium organophilum (ATCC 27,886); details: as electron donor replacing NADH2 in the procedure of Example 15
Method: as §1, with “35°C” for “35 °C”, “minute..” for “minute.”, “gaseous mixture consisting of 1:1” for “1 to 1”, “oxygen:the” for “gaseous mixture of the”, “XVIII,” for “III to oxygen,”
as §4

[7] = system: Secondary Alcohol Dehydrogenase; experiment: Dehydrogenation of the secondary alcohol in the coupled reaction (Example 22); assay type: biochemical, yeast Pichia sp.; details: NAD^+
Method: The procedure of Example 15 was followed using 1.0 ml of a reaction mixture consisting of 50 µ moles potassium phosphate buffer at pH 7.0, 10 µ moles NAD^+, 10 µ moles secondary alcohol (either 2-butanol or 2-propanol), and, as the remainder, secondary alcohol dehydrogenase from yeast Pichia sp. and the soluble S(80) fraction obtained as described in Example 14. The dehydrogenase was previously purified as described in Patel et al., Eur. J. Biochem., 101, 401 (1979).

[8] = system: Soluble Methane Monooxygenase; experiment: Effect of potential inhibitors on propylene oxidation by the soluble S(80) fraction (Example 9); assay type: biochemical, Methylobacterium organophilum (CRL.26)
Method: as §6
[…] Specific activities were expressed as nmoles of product formed per min. per mg. of protein, with the higher number representing better conversion. With each substrate, control experiments were conducted in the absence of NADH2, in the absence of oxygen, and using boiled extracts.
[…] The column temperature was maintained isothermally between 80 °C and 200°C with helium carrier gas flow rates of 20-40 ml per min. The amount of product formed was estimated from peak areas using a standard graph constructed using authentic compounds.
as §7

[9] = molecular target: T1, soluble methane monooxygenase from Methylococcus capsulatus (Bath) (Methylococcus capsulatus, UniProt P22869); assay type: biochemical; design: host or cells: soluble fraction of Methylococcus capsulatus Strain Bath; details: comparison with CRL.26 in Example 9
T1 sequence (P22869 whole entry): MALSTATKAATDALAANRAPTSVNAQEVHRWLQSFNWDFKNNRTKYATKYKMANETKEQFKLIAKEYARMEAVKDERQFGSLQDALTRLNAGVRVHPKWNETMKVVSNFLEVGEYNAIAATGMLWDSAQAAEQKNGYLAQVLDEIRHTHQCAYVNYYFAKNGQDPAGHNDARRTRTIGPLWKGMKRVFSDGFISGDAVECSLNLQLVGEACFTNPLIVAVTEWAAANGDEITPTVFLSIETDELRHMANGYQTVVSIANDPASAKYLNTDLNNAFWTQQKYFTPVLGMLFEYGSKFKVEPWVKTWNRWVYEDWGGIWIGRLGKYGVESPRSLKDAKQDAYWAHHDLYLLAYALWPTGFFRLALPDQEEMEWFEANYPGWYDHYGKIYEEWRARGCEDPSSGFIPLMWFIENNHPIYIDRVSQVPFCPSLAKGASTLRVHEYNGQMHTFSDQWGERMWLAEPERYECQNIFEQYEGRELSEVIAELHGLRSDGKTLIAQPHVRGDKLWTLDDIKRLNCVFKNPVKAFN
T1 sequence (P18798 whole entry, further chain): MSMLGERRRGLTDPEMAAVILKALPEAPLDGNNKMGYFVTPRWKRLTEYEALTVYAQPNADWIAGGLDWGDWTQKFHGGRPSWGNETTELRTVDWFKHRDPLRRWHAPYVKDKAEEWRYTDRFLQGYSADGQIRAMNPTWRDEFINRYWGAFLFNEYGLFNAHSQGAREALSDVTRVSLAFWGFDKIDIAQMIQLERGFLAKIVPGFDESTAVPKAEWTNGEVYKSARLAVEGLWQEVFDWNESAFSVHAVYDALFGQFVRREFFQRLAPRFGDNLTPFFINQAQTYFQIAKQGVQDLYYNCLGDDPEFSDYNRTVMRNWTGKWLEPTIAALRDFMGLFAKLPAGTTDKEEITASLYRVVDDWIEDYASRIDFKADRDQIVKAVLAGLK
T1 sequence (P11987 whole entry, further chain): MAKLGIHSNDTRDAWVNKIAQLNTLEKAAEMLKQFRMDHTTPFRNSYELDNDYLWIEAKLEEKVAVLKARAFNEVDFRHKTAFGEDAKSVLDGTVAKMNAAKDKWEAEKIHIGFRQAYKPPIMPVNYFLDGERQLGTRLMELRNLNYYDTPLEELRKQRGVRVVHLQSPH

[10] = molecular target: T1, soluble methane monooxygenase from Methylococcus capsulatus (Bath); details: cited from earlier work
[11] = molecular target: soluble methane monooxygenase from Methylosinus trichosporium (OB3b) (Methylosinus trichosporium, UniProt P27353); details: cited from earlier work
soluble methane monooxygenase from Methylosinus trichosporium (OB3b), sequence (P27354 whole entry): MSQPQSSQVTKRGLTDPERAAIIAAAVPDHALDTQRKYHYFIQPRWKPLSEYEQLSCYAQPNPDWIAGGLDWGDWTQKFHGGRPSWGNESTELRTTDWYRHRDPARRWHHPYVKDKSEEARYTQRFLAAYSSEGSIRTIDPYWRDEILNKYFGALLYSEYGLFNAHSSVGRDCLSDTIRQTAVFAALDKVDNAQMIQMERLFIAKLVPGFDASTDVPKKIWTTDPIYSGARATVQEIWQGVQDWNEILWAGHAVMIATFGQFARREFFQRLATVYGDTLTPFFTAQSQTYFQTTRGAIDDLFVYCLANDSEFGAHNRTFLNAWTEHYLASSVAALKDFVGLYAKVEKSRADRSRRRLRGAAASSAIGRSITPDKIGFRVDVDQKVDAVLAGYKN
soluble methane monooxygenase from Methylosinus trichosporium (OB3b), sequence (P27355 whole entry, further chain): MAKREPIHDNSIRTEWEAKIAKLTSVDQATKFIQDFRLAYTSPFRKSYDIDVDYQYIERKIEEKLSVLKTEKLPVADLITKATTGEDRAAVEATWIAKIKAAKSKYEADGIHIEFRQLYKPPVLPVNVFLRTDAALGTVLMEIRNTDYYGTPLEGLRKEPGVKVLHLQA
soluble methane monooxygenase from Methylosinus trichosporium (OB3b), sequence (P27353 whole entry): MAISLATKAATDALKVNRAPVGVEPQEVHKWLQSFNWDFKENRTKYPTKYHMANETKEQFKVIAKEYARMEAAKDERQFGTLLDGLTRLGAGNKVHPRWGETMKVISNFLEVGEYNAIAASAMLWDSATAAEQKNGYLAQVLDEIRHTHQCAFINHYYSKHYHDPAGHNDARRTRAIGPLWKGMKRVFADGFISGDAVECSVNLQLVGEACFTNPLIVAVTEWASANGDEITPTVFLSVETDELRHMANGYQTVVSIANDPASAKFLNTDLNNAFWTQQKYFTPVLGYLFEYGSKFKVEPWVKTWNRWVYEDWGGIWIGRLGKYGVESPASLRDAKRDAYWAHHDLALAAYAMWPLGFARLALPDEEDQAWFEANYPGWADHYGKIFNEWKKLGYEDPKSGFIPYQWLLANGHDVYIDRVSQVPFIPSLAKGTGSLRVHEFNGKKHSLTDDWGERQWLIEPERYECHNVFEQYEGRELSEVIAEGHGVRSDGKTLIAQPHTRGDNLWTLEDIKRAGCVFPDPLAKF

[12] = inhibitor 1 mM, incubated at 0°C for 15 min, propylene substrate, percentage of control (100%) containing no inhibitor
[13] = inhibitor 1 mM, incubated at 0°C for 15 min, propylene substrate, percentage of control containing no inhibitor
[14] = inhibitor 0.1 mM, incubated at 0°C for 15 min, propylene substrate, percentage of control (100%) containing no inhibitor
[15] = inhibitor 0.1 mM, incubated at 0°C for 15 min, propylene substrate, percentage of control containing no inhibitor

## CCCC [Butane]
[1]; pH 7
  Rate of Product Formation: 250 nmoles/min/mg protein and 150 nmoles/min/mg protein
[2]; pH 7
  Rate of Product Formation: 20 nmoles/ min/mg of protein and 10 nmoles/ min/mg of protein
[3]
  Rate of Product Formation: 15 nmoles/ min/mg of protein

## C=C(C)C [Isobutylene]
[3]; product Epoxyisobutylene, substrates Isobutylene and 2-Propanol, NAD^+, secondary alcohol dehydrogenase
  Rate of Product Formation: 29 nmoles/ min/mg of protein

## C=CCC [1-Butene]
[1]; pH 7
  Rate of Product Formation: 180 nmoles/min/mg protein
[4]; pH 7
  Rate of Product Formation: 35 nmoles/ min/mg of protein

## NC(=O)C1=CN([C@@H]2O[C@H](COP(=O)(O)OP(=O)(O)OC[C@H]3O[C@@H](n4cnc5c(N)ncnc54)[C@H](O)[C@@H]3O)[C@@H](O)[C@H]2O)C=CC1 [NADH2, nicotinamide adenine dinucleotide in the reduced form]
[5]
  Specific Activity: 100 nmoles/min/mg of protein
  suitability as cofactor system / electron donor (in words): suitable
[6]
  soluble methane monooxygenase activity observed: about 70%

## CC(C)O [2-Propanol]
[3]; product 2-Butanone, substrates Butane and 2-Propanol, NAD^+, secondary alcohol dehydrogenase
  Rate of Product Formation: 10 nmoles/ min/mg of protein
[7]; product Acetone, substrates Butane and 2-Propanol
  Rate of Product Formation: 45 nmoles/ min/mg of protein
[7]; product Acetone, substrates Isobutylene and 2-Propanol
  Rate of Product Formation: 45 nmoles/ min/mg of protein

## C=C [Ethylene]
[1]; pH 7
  Rate of Product Formation: 140 nmoles/min/mg protein
[4]; pH 7
  Rate of Product Formation: 28 nmoles/ min/mg of protein
[2]; pH 7
  Rate of Product Formation: 28 nmoles/ min/mg of protein
[3]
  Rate of Product Formation: 25 nmoles/ min/mg of protein

## C [Methane]
[1]; product Methanol, NAD^+, formaldehyde, reduced glutathione, formaldehyde dehydrogenase from Pichia sp., pH 7.0
  Rate of Product Formation: 128 nmoles/min/mg protein

## NC(=O)C1=CN([C@@H]2O[C@H](COP(=O)(O)OP(=O)(O)OC[C@H]3O[C@@H](n4cnc5c(N)ncnc54)[C@H](OP(=O)(O)O)[C@@H]3O)[C@@H](O)[C@H]2O)C=CC1 [NADPH2, nicotinamide adenine dinucleotide phosphate in the reduced form]
[5]
  Specific Activity: 70 nmoles/min/mg of protein
  suitability as cofactor system / electron donor (in words): suitable

## NNC(N)=S [Thiosemicarbazide]
[8]
  inhibition of soluble methane monooxygenase activity (in words): not inhibited
[8]; [12]
  Activity (%): 108%
[8]; [13]
  Inhibition (%): 0%

## c1cnc2c(c1)ccc1cccnc12 [1,10-Phenanthroline]
[8]
  inhibition of soluble methane monooxygenase activity (in words): not inhibited
[8]; [12]
  Activity (%): 67%
[8]; [13]
  Inhibition (%): 33%
[8]; statement in the text of Example 9
  inhibited activity of Methylobacterium organophilum (CRL.26): about 30%
[9]
  inhibition of the activity of Methylococcus capsulatus (Bath) (in words): did not inhibit

## C=CC [Propylene]
[8]; no inhibitor, substrate propylene
  uninhibited rate of propylene oxidation: (b) The uninhibited rate of propylene oxidation was 100 nmoles of propylene oxide produced/min/mg of protein.
[1]; product Propylene Oxide, NAD^+, formaldehyde, reduced glutathione, formaldehyde dehydrogenase, pH 7.0
  Rate of Product Formation: 250 nmoles/min/mg protein
[4]; product Propylene Oxide, NAD^+ and sodium formate, pH 7.0
  Rate of Product Formation: 54 nmoles/ min/mg of protein
[2]; product Propylene Oxide, NAD^+, reduced glutathione, formaldehyde, formaldehyde dehydrogenase, pH 7.0
  Rate of Product Formation: 52 nmoles/ min/mg of protein
[3]; product Propylene oxide, substrates Propylene and 2-Butanol, NAD^+, secondary alcohol dehydrogenase
  Rate of Product Formation: 48 nmoles/ min/mg of protein

## CCN1C(=O)C=CC1=O [N-Ethylmaleimide]
[8]; [12]
  Activity (%): 102%
[8]; [13]
  Inhibition (%): 0%

## O=C(O)c1cc(SSc2ccc([N+](=O)[O-])c(C(=O)O)c2)ccc1[N+](=O)[O-] [5,5'-dithiobis-2-nitrobenzoate]
[8]
  inhibition of soluble methane monooxygenase activity (in words): inhibit
[8]; [12]
  Activity (%): 38%
[8]; [13]
  Inhibition (%): 62%

## CC [Ethane]
[1]; product Ethanol, NAD^+, formaldehyde, reduced glutathione, formaldehyde dehydrogenase, pH 7.0
  Rate of Product Formation: 145 nmoles/min/mg protein

## NC(=O)CI [Iodoacetamide]
[8]
  inhibition of soluble methane monooxygenase activity (in words): inhibit
[8]; [12]
  Activity (%): 20%
[8]; [13]
  Inhibition (%): 80%

## CCC [Propane]
[1]; product Propan-1-ol, NAD^+, formaldehyde, reduced glutathione, formaldehyde dehydrogenase, pH 7.0
  Rate of Product Formation: 60 nmoles/min/mg protein
[1]; product Propan-2-ol, NAD^+, formaldehyde, reduced glutathione, formaldehyde dehydrogenase, pH 7.0
  Rate of Product Formation: 95 nmoles/min/mg protein

## Oc1cccc2cccnc12 [8-Hydroxyquinoline]
[8]
  Activity (%): 117%
  Inhibition (%): 0%
  inhibition of soluble methane monooxygenase activity (in words): not inhibitory
[10]
  inhibition of soluble methane monooxygenase (in words): strongly inhibits
[11]
  inhibition of soluble methane monooxygenase (in words): strongly inhibits

## Acriflavin
[8]
  inhibition of soluble methane monooxygenase activity (in words): inhibit
[8]; [14]
  Activity (%): 71%
[8]; [15]
  Inhibition (%): 29%

## 2-Butanol
[3]; product Acetone, substrates Propane and 2-Butanol, NAD^+, secondary alcohol dehydrogenase
  Rate of Product Formation: 18 nmoles/ min/mg of protein
[7]; product 2-Butanone, substrates Ethane and 2-Butanol
  Rate of Product Formation: 48 nmoles/ min/mg of protein
[7]; product 2-Butanone, substrates Ethylene and 2-Butanol
  Rate of Product Formation: 45 nmoles/ min/mg of protein
[7]; product 2-Butanone, substrates Methane and 2-Butanol
  Rate of Product Formation: 50 nmoles/ min/mg of protein
[7]; product 2-Butanone, substrates Propane and 2-Butanol
  Rate of Product Formation: 45 nmoles/ min/mg of protein
[7]; product 2-Butanone, substrates Propylene and 2-Butanol
  Rate of Product Formation: 50 nmoles/ min/mg of protein

## O=C(O)c1cc[c]([Hg+])cc1.[OH-] [p-Hydroxymercuribenzoate]
[8]; [14]
  Activity (%): 100%
[8]; [15]
  Inhibition (%): 0%
